Numbers after ± are expanded uncertainties.
Assay: osmotic coefficient (dimensionless); mn = molality of the nth substance listed, in mol/kg
Conditions: 323.15 K, 101 kPa, Liquid, Knauer K-7000 vapour pressure osmometer

For `CCCC[N+]1(C)CCCC1.N#CN=C=[N-]` [1-butyl-1-methylpyrrolidinium dicyanamide] + CCCO, the osmotic coefficient (m1 = 0.0836) was 0.9 ± 0.013, the osmotic coefficient (m1 = 0.119) was 0.858 ± 0.013 and the osmotic coefficient (m1 = 0.2054) was 0.8 ± 0.014. It also gave an osmotic coefficient (m1 = 0.2962) of 0.743 ± 0.015, an osmotic coefficient (m1 = 0.4029) of 0.71 ± 0.016 and an osmotic coefficient (m1 = 0.502) of 0.689 ± 0.016. For the same molecule, the osmotic coefficient (m1 = 0.7791) was 0.653 ± 0.017, the osmotic coefficient (m1 = 1.182) was 0.614 ± 0.018 and the osmotic coefficient (m1 = 1.61) was 0.587 ± 0.019. For the same molecule, the osmotic coefficient (m1 = 2) was 0.576 ± 0.019, the osmotic coefficient (m1 = 2.442) was 0.565 ± 0.02 and the osmotic coefficient (m1 = 2.865) was 0.56 ± 0.02.

Molecule `CCCC[N+]1(C)CCCC1.N#CN=C=[N-]` [1-butyl-1-methylpyrrolidinium dicyanamide] + CCC(C)O has an osmotic coefficient (m1 = 0.0878) of 0.793 ± 0.014, an osmotic coefficient (m1 = 0.1149) of 0.755 ± 0.015 and an osmotic coefficient (m1 = 0.1863) of 0.705 ± 0.016. For the same molecule, the osmotic coefficient (m1 = 0.2981) was 0.641 ± 0.017, the osmotic coefficient (m1 = 0.4092) was 0.621 ± 0.018 and the osmotic coefficient (m1 = 0.5397) was 0.591 ± 0.019. The osmotic coefficient (m1 = 0.8291) was 0.58 ± 0.019, the osmotic coefficient (m1 = 1.213) was 0.555 ± 0.02 and the osmotic coefficient (m1 = 1.611) was 0.556 ± 0.02. For the same molecule, the osmotic coefficient (m1 = 2.019) was 0.548 ± 0.02, the osmotic coefficient (m1 = 2.4) was 0.539 ± 0.02 and the osmotic coefficient (m1 = 2.776) was 0.533 ± 0.02. The osmotic coefficient (m1 = 3.307) was 0.523 ± 0.021.

For `CCCC[N+]1(C)CCCC1.N#CN=C=[N-]` [1-butyl-1-methylpyrrolidinium dicyanamide] + CCCCCO, the osmotic coefficient (m1 = 0.0446) was 0.63 ± 0.018, the osmotic coefficient (m1 = 0.0818) was 0.59 ± 0.019 and the osmotic coefficient (m1 = 0.1078) was 0.558 ± 0.02. For the same molecule, the osmotic coefficient (m1 = 0.1865) was 0.512 ± 0.021, the osmotic coefficient (m1 = 0.299) was 0.491 ± 0.022 and the osmotic coefficient (m1 = 0.3928) was 0.477 ± 0.022. It also gave an osmotic coefficient (m1 = 0.5108) of 0.467 ± 0.022, an osmotic coefficient (m1 = 0.8086) of 0.453 ± 0.023 and an osmotic coefficient (m1 = 1.191) of 0.444 ± 0.023. The osmotic coefficient (m1 = 1.598) was 0.435 ± 0.023, the osmotic coefficient (m1 = 2.004) was 0.425 ± 0.024 and the osmotic coefficient (m1 = 2.406) was 0.417 ± 0.024. The osmotic coefficient (m1 = 2.798) was 0.409 ± 0.024 and the osmotic coefficient (m1 = 3.063) was 0.404 ± 0.024.

In the case of `CCCC[N+]1(C)CCCC1.N#CN=C=[N-]` [1-butyl-1-methylpyrrolidinium dicyanamide] + CC(C)O, the osmotic coefficient (m1 = 0.0709) is reported as 0.942 ± 0.013, the osmotic coefficient (m1 = 0.1087) is reported as 0.878 ± 0.013 and the osmotic coefficient (m1 = 0.1972) is reported as 0.827 ± 0.014. For the same molecule, the osmotic coefficient (m1 = 0.2934) was 0.778 ± 0.014, the osmotic coefficient (m1 = 0.3976) was 0.75 ± 0.015 and the osmotic coefficient (m1 = 0.4909) was 0.722 ± 0.016. The osmotic coefficient (m1 = 0.7769) was 0.685 ± 0.016, the osmotic coefficient (m1 = 1.175) was 0.645 ± 0.017 and the osmotic coefficient (m1 = 1.595) was 0.631 ± 0.018. It also gave an osmotic coefficient (m1 = 1.998) of 0.612 ± 0.018, an osmotic coefficient (m1 = 2.419) of 0.608 ± 0.018 and an osmotic coefficient (m1 = 2.821) of 0.595 ± 0.019. The osmotic coefficient (m1 = 3.296) was 0.59 ± 0.019.

For `CCCC[N+]1(C)CCCC1.N#CN=C=[N-]` [1-butyl-1-methylpyrrolidinium dicyanamide] + CCCCO, the osmotic coefficient (m1 = 0.0577) was 0.734 ± 0.017, the osmotic coefficient (m1 = 0.0761) was 0.68 ± 0.017 and the osmotic coefficient (m1 = 0.1089) was 0.665 ± 0.017. It also gave an osmotic coefficient (m1 = 0.2006) of 0.624 ± 0.018, an osmotic coefficient (m1 = 0.296) of 0.602 ± 0.019 and an osmotic coefficient (m1 = 0.4011) of 0.587 ± 0.019. For the same molecule, the osmotic coefficient (m1 = 0.4745) was 0.581 ± 0.019, the osmotic coefficient (m1 = 0.8117) was 0.57 ± 0.019 and the osmotic coefficient (m1 = 1.214) was 0.551 ± 0.02. It also gave an osmotic coefficient (m1 = 1.617) of 0.541 ± 0.02, an osmotic coefficient (m1 = 2.033) of 0.532 ± 0.02 and an osmotic coefficient (m1 = 2.43) of 0.52 ± 0.021. For the same molecule, the osmotic coefficient (m1 = 2.845) was 0.516 ± 0.021 and the osmotic coefficient (m1 = 3.308) was 0.508 ± 0.021.
